Source: patent US12465594B2 (Brown University, priority 2018, dated 2025)

What was measured:
KOR = KOR (Homo sapiens, UniProt P41145); assay: PDSP binding assay; details: 10 μM, quadruplicate, cloned target
Beta2 = Beta2 (Homo sapiens, UniProt P07550); assay: PDSP binding assay; details: 10 μM, quadruplicate, cloned target
H2 = H2 (Homo sapiens, UniProt P25021); assay: PDSP binding assay; details: 10 μM, quadruplicate, cloned target
M3 = M3 (Homo sapiens, UniProt P20309); assay: PDSP binding assay; details: 10 μM, quadruplicate, cloned target
Alpha2B = Alpha2B (Homo sapiens, UniProt P18089); assay: PDSP binding assay; details: 10 μM, quadruplicate, cloned target
D3 = D3 (Homo sapiens, UniProt P35462); assay: PDSP binding assay; details: 10 μM, quadruplicate, cloned target
5-HT2B = target: T1, 5-HT2B (Homo sapiens, UniProt P41595); assay: PDSP binding assay; details: 10 μM, quadruplicate, cloned target
T1 construct: NIMH Psychoactive Drug Screening Program (PDSP)

D5 = D5 (Homo sapiens, UniProt P21918); assay: PDSP binding assay; details: 10 μM, quadruplicate, cloned target
H3 = H3 (Homo sapiens, UniProt Q9Y5N1); assay: PDSP binding assay; details: 10 μM, quadruplicate, cloned target
DOR = DOR (Homo sapiens, UniProt P41143); assay: PDSP binding assay; details: 10 μM, quadruplicate, cloned target
CYP2D6 = CYP2D6 (Homo sapiens, UniProt P10635); assay: in vitro; details: microsomes
5-HT2C = target: T2, 5-HT2C (Homo sapiens, UniProt P28335); assay: PDSP binding assay; details: 10 μM, quadruplicate, cloned target
T2 construct: NIMH Psychoactive Drug Screening Program (PDSP)

Sigma 1 = assay: PDSP binding assay; details: 10 μM, quadruplicate, cloned target
Alpha1A = Alpha1A (Homo sapiens, UniProt P35348); assay: PDSP binding assay; details: 10 μM, quadruplicate, cloned target
5-HT1D = target: T3, 5-HT1D (Homo sapiens, UniProt P28221); assay: PDSP binding assay; details: 10 μM, quadruplicate, cloned target
T3 construct: NIMH Psychoactive Drug Screening Program (PDSP)

[1] = Plasma protein binding (equilibrium dialysis); assay type: in vitro ADME; details: rat plasma
From the text: Both compounds were then profiled for their plasma protein binding (PPB) and brain homogenate binding (BHB) to predict the unbound drug fraction in the plasma and brain respectively.

Alpha2A = Alpha2A (Homo sapiens, UniProt P08913); assay: PDSP binding assay; details: 10 μM, quadruplicate, cloned target
SERT = SERT (Homo sapiens, UniProt P31645); assay: PDSP binding assay; details: 10 μM, quadruplicate, cloned target
Alpha1B = Alpha1B (Homo sapiens, UniProt P35368); assay: PDSP binding assay; details: 10 μM, quadruplicate, cloned target
GABAA = assay: PDSP binding assay; details: 10 μM, quadruplicate, cloned target
Beta1 = Beta1 (Homo sapiens, UniProt P08588); assay: PDSP binding assay; details: 10 μM, quadruplicate, cloned target
Beta3 = Beta3 (Homo sapiens, UniProt P13945); assay: PDSP binding assay; details: 10 μM, quadruplicate, cloned target
H4 = H4 (Homo sapiens, UniProt Q9H3N8); assay: PDSP binding assay; details: 10 μM, quadruplicate, cloned target
M4 = M4 (Homo sapiens, UniProt P08173); assay: PDSP binding assay; details: 10 μM, quadruplicate, cloned target
M5 = M5 (Homo sapiens, UniProt P08912); assay: PDSP binding assay; details: 10 μM, quadruplicate, cloned target
5-HT7 = target: T4, 5-HT7 (Homo sapiens, UniProt P34969); assay: PDSP binding assay; details: 10 μM, quadruplicate, cloned target
T4 construct: NIMH Psychoactive Drug Screening Program (PDSP)

D4 = D4 (Homo sapiens, UniProt P21917); assay: PDSP binding assay; details: 10 μM, quadruplicate, cloned target
Alpha1D = Alpha1D (Homo sapiens, UniProt P25100); assay: PDSP binding assay; details: 10 μM, quadruplicate, cloned target
5-HT1A = target: T5, 5-HT1A (Homo sapiens, UniProt P08908); assay: PDSP binding assay; details: 10 μM, quadruplicate, cloned target
T5 construct: NIMH Psychoactive Drug Screening Program (PDSP)

Sigma 2 = assay: PDSP binding assay; details: 10 μM, quadruplicate, cloned target
5-HT1B = target: T6, 5-HT1B (Homo sapiens, UniProt P28222); assay: PDSP binding assay; details: 10 μM, quadruplicate, cloned target
T6 construct: NIMH Psychoactive Drug Screening Program (PDSP)

5-HT3 = target: T7, 5-HT3 (Homo sapiens, UniProt P46098); assay: PDSP binding assay; details: 10 μM, quadruplicate, cloned target
T7 construct: NIMH Psychoactive Drug Screening Program (PDSP)

CRF1 = CRF1 (Homo sapiens, UniProt P34998); assay: CRF1 Ca2+ assay; details: presence of EC80 CRF
5-HT1E = target: T8, 5-HT1E (Homo sapiens, UniProt P28566); assay: PDSP binding assay; details: 10 μM, quadruplicate, cloned target
T8 construct: NIMH Psychoactive Drug Screening Program (PDSP)

[2] = In vivo pharmacokinetic study, plasma and brain exposure; details: mouse, 10 mg/kg i.p.

T2 sequence (P28335 33-458, species assumed): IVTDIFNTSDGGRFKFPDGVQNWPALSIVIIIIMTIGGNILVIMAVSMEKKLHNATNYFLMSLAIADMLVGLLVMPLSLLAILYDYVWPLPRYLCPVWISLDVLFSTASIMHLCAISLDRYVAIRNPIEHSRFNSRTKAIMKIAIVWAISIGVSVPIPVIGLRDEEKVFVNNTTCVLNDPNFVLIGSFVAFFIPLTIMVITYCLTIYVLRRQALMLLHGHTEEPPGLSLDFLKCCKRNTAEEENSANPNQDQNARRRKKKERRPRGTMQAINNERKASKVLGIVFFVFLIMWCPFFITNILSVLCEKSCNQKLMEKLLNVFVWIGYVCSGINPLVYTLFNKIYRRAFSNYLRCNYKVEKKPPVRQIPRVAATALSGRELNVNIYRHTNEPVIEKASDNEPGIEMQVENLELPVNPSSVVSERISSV
T3 sequence (P28221 whole entry, species assumed): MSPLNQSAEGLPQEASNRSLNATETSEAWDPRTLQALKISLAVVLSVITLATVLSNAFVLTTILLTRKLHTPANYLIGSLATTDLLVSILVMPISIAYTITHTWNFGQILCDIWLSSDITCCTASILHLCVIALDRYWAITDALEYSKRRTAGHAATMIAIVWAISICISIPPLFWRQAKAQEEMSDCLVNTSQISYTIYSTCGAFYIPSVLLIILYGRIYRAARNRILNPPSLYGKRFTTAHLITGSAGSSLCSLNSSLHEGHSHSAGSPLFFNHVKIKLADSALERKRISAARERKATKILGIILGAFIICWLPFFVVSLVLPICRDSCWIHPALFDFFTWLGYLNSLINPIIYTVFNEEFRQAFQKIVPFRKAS
Alpha1A, sequence (P35348 whole entry): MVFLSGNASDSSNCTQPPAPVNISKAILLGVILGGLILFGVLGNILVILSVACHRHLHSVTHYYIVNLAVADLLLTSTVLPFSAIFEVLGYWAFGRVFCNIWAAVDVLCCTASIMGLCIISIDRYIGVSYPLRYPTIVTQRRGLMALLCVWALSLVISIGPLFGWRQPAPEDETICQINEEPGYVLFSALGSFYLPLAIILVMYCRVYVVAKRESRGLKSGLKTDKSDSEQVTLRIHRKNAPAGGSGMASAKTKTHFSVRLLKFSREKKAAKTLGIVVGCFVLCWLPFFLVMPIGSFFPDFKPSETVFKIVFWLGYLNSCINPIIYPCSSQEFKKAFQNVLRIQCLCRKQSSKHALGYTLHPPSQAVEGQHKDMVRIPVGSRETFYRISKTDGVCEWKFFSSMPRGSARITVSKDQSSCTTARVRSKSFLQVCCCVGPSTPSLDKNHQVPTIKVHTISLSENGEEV
Alpha2A, sequence (P08913 whole entry): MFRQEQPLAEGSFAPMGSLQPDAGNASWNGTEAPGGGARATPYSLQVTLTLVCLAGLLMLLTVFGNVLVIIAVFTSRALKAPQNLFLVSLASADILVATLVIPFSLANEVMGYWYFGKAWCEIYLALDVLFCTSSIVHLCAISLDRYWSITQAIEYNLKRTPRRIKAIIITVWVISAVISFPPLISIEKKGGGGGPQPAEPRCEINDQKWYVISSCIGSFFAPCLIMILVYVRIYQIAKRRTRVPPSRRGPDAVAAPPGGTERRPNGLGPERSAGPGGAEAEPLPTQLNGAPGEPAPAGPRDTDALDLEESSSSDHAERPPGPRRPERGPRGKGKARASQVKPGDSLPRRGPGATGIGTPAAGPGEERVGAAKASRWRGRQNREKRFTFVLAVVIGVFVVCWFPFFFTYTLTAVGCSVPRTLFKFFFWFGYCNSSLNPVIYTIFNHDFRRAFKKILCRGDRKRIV
D5, sequence (P21918 whole entry): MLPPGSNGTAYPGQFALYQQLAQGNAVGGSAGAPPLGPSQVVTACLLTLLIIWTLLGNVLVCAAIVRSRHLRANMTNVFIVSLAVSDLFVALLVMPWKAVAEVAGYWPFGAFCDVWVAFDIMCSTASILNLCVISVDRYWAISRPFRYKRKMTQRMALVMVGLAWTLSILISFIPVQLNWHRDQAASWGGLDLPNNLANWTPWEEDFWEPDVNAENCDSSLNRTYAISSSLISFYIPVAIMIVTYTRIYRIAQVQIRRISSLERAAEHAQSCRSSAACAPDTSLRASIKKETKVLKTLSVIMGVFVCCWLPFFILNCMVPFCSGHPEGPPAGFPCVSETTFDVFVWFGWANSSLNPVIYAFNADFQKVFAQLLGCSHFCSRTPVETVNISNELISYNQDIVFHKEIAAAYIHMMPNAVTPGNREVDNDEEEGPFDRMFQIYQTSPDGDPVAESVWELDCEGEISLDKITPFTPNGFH
T5 sequence (P08908 whole entry, species assumed): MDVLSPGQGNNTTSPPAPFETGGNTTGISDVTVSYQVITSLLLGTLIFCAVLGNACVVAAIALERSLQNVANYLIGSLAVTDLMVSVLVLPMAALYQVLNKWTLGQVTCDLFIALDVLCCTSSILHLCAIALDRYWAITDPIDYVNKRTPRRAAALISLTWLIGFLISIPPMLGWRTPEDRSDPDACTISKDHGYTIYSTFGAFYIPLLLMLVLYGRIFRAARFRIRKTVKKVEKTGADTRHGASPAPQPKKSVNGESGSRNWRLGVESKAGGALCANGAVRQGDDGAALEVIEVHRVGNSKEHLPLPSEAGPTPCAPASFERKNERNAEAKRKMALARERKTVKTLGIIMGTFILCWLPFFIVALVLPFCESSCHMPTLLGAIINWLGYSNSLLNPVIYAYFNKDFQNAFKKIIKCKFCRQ
KOR, sequence (P41145 whole entry): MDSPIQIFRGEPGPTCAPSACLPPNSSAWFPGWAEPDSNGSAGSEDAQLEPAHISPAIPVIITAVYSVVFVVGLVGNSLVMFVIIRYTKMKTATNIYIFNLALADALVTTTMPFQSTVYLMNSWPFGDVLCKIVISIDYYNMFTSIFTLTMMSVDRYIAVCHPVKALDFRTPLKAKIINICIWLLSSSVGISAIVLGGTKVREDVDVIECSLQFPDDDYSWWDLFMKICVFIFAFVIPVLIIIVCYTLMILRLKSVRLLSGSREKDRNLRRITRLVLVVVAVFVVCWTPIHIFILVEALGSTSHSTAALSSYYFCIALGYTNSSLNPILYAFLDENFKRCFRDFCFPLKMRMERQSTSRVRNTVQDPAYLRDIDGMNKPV
Beta1, sequence (P08588 whole entry): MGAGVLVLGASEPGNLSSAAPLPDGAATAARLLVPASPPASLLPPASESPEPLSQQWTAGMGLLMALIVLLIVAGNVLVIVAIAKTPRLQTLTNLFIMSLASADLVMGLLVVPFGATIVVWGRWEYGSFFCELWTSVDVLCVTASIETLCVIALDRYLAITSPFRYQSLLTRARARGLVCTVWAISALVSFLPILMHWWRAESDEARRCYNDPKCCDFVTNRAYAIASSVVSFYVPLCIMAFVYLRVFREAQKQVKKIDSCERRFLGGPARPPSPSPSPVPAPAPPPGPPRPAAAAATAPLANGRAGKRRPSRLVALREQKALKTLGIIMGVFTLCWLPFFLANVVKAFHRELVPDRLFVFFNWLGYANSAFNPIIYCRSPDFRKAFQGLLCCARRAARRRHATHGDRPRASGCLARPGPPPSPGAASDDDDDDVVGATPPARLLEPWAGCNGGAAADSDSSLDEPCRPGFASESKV
Alpha1D, sequence (P25100 whole entry): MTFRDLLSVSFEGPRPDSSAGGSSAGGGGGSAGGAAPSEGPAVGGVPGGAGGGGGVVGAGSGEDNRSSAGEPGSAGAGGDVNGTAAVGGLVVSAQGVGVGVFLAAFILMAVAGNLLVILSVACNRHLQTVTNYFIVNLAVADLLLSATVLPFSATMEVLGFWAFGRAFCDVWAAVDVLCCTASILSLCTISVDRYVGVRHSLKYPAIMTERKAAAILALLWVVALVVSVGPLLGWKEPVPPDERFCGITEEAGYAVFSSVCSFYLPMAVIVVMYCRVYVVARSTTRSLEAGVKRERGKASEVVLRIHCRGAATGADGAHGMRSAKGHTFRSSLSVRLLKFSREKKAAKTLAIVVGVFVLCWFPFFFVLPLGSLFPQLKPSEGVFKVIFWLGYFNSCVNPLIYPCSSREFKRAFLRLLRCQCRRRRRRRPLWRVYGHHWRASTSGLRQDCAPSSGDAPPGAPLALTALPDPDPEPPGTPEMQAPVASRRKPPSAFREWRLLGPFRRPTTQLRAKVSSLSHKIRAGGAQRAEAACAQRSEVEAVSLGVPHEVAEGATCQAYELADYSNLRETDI
SERT, sequence (P31645 whole entry, species assumed): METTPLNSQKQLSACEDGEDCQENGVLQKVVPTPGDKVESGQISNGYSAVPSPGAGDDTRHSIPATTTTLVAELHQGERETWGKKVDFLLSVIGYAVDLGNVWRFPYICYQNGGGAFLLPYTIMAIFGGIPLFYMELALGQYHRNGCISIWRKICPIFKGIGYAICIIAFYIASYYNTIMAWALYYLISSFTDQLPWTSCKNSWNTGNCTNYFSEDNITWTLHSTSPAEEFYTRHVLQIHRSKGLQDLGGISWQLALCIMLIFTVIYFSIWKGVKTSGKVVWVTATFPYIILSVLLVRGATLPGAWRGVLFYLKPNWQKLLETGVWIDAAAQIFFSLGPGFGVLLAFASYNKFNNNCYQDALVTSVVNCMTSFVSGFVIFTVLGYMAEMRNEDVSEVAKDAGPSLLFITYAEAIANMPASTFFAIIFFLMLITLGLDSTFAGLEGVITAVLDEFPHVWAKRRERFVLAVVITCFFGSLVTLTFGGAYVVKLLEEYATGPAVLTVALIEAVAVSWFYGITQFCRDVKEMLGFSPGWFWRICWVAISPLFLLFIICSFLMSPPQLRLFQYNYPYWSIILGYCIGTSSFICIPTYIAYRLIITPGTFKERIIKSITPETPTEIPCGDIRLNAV

| Structure (SMILES) | Activity at KOR (binding assay) (KOR) [%] | Activity at Beta2 (binding assay) (Beta2) [%] | Activity at H2 (binding assay) (H2) [%] | Activity at M3 (binding assay) (M3) [%] | Activity at Alpha2B (binding assay) (Alpha2B) [%] | Activity at D3 (binding assay) (D3) [%] | Activity at 5-HT2B (binding assay) (5-HT2B) [%] | Activity at D5 (binding assay) (D5) [%] | Activity at H3 (binding assay) (H3) [%] | Activity at DOR (binding assay) (DOR) [%] | inhibition at 10 µM (CYP2D6) [%] | Activity at 5-HT2C (binding assay) (5-HT2C) [%] | Activity at Sigma 1 (binding assay) (Sigma 1) [%] | Activity at Alpha1A (binding assay) (Alpha1A) [%] | Activity at 5-HT1D (binding assay) (5-HT1D) [%] | Plasma protein binding, free [1] [% free] | Activity at Alpha2A (binding assay) (Alpha2A) [%] | Activity at SERT (binding assay) (SERT) [%] | Activity at Alpha1B (binding assay) (Alpha1B) [%] | Activity at GABAA (binding assay) (GABAA) [%] | other results |
| --- | --- | --- | --- | --- | --- | --- | --- | --- | --- | --- | --- | --- | --- | --- | --- | --- | --- | --- | --- | --- | --- |
| Brc1ccccc1-c1nnc(CSc2nnnn2-c2ccccc2)o1 [MLS-0046818] | 85 | 1 | 22 | 13 | 2 | −11 | 67 | 12 | −15 | −7 | -128 | 19 | 8 | 10 | −5 | 4.6 | 4 | −14 | 19 | 15 | Activity at Beta1 (binding assay) (Beta1): 7%; Activity at Beta3 (binding assay) (Beta3): 27%; Activity at H4 (binding assay) (H4): 8%; Activity at M4 (binding assay) (M4): −12%; Activity at M5 (binding assay) (M5): −6%; Activity at 5-HT7 (binding assay) (5-HT7): −31%; Activity at D4 (binding assay) (D4): −42%; Activity at Alpha1D (binding assay) (Alpha1D): −10%; Activity at 5-HT1A (binding assay) (5-HT1A): 26%; Activity at Sigma 2 (binding assay) (Sigma 2): −7%; Activity at 5-HT1B (binding assay) (5-HT1B): 5%; Activity at 5-HT3 (binding assay) (5-HT3): −2%; CRF1 activity (CRF1): inactive; Activity at 5-HT1E (binding assay) (5-HT1E): 16%; Brain exposure ([2]; 4 hour post-dose): 56 nM; Brain exposure relative to IC50 ([2]; 4 hour post-dose): 0.10 ×IC50; Brain exposure relative to IC50 ([2]; 6 hour post-dose): 0.14 ×IC50; Brain exposure ([2]; 24 hour post-dose): 40 nM; Brain exposure relative to IC50 ([2]; 24 hour post-dose): 0.07 ×IC50; Plasma Cmax exposure relative to in vitro IC50 [2]: 4.8 × |
| CC(C)Cn1c(SCC(=O)N2CCc3ccccc3C2)nc2cc(Cl)ccc2c1=O [MLS-0219419] | −10 | −13 | 20 | 19 | 0 | −6 | 2 | −15 | −9 | −8 | -21 | −7 | 7 | −15 | −5 | 0.1 | 8 | −14 | −1 | 9 | Activity at Beta1 (binding assay) (Beta1): 1%; Activity at Beta3 (binding assay) (Beta3): 29%; Activity at H4 (binding assay) (H4): −15%; Activity at M4 (binding assay) (M4): −6%; Activity at M5 (binding assay) (M5): −2%; Activity at 5-HT7 (binding assay) (5-HT7): 6%; Activity at D4 (binding assay) (D4): −60%; Activity at Alpha1D (binding assay) (Alpha1D): −19%; Activity at 5-HT1A (binding assay) (5-HT1A): −9%; Activity at Sigma 2 (binding assay) (Sigma 2): 9%; Activity at 5-HT1B (binding assay) (5-HT1B): 18%; Activity at 5-HT3 (binding assay) (5-HT3): 2%; CRF1 activity (CRF1): inactive; Activity at 5-HT1E (binding assay) (5-HT1E): 11%; Brain exposure ([2]; 4 hour post-dose): 245 nM; Brain exposure relative to IC50 ([2]; 4 hour post-dose): 0.52 ×IC50; Brain exposure ([2]; 24 hour post-dose): 78 nM; Brain exposure relative to IC50 ([2]; 24 hour post-dose): 0.17 ×IC50; Plasma Cmax exposure relative to in vitro IC50 [2]: 1.7 × |
